Assay results reported in patent US5104869A, “Renin inhibitors” (American Cyanamid Company, priority 1990, dated 1992).

Each compound was assayed against T1, human kidney renin (Homo sapiens, UniProt P00797) (assay: Radioimmunoassay Screen for Renin Inhibitors (in vitro angiotensin I generation, quantitated by radioimmunoassay)). Conditions: purified human plasma angiotensinogen, pH 6.0, one hour at 37° C., read-out: Renin Inhibiton IC50.
T1 construct: Human renin was prepared from human kidney; from tissue; host or cells: human kidney
T1 sequence (P00797 67-406): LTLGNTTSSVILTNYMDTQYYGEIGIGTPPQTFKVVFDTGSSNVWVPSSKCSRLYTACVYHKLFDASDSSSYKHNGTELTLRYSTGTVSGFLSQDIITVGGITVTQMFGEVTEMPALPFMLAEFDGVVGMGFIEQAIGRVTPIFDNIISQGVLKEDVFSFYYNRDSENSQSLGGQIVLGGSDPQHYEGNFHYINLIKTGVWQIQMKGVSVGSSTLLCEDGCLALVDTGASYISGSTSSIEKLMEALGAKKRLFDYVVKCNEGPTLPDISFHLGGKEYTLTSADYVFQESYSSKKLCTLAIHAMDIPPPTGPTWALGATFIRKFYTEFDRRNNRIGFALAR
Assay type: biochemical
Method: The in vitro method for the screening of anti-renin compounds involves, first, angiotensin I generation, and second, the quantitation of the angiotensin I produced by radioimmunoassay.
The incubation medium consisted of 20 μl of purified human plasma angiotensinogen (1); 10 μl of human kidney renin (2); 5 μl of phenylmethylsulfonyl fluoride; 10 μl of disodium EDTA (10 mM); 10 μl of antirenin compound (5×10^-3, 5×10^-4, 5×10^-5) in dimethylformamide, or ethanol and a suitable amount of maleate buffer (77 mM, pH 6.0) to make a final volume of 500 μl. The reaction mixture was incubated for one hour at 37° C. and the enzymatic reaction was stopped by placing the tube in ice-cold water. The angiotensin I generated during the incubation was measured by a radioimmunoassay plasma renin activity kit (Clinical Assays, Inc.).
The incubation medium consisted of either 100 μl aliquots of the above reaction mixture or a standard amount of angiotensin I; 1000 μl of phosphate buffer (100 mM, pH 7.6) and 100 μl of (^125 I)angiotensinin a gamma-coat, tube. After three hours of incubation at room temperature, the tubes were decanted, and the radioactivity of each tube was determined in a gamma counter. Duplicate determinations were performed for each incubation. The results were expressed in ng of angiotensin I generated per ml of generation medium per hour of incubation (ng/AI/ml/hr).
(1) The human plasma angiotensinogen derived from the blood of a person receiving oral contraceptive pills was purified by chromatography on a pepstatinaminohexyl-agarose column.
(2) Human renin was prepared from human kidney.

Structure (SMILES)	IC50
CC(C)C[C@H](NC(=O)[C@@H](CC(=O)NCCCCn1ccnc1)Cc1cccc2ccccc12)C(=O)N[C@@H](CC(C)C)[C@@H](O)c1nccs1	93 nM
CC(C)C[C@H](NC(=O)[C@@H](CC(=O)OC(C)(C)C)Cc1cccc2ccccc12)C(=O)N[C@@H](CC(C)C)[C@@H](O)c1nccs1	550 nM
COc1cc(C[C@H](CC(=O)N2CCOCC2)C(=O)N[C@@H](Cc2c[nH]cn2)C(=O)N[C@@H](CC(C)C)[C@@H](O)c2nccs2)cc(OC)c1OC	2800 nM
CC(C)C[C@H](NC(=O)[C@@H](CC(=O)NCCc1ccccn1)Cc1cccc2ccccc12)C(=O)N[C@@H](CC(C)C)[C@@H](O)c1nccs1	110 nM
Cn1cccc1CCNC(=O)C[C@@H](Cc1cccc2ccccc12)C(=O)N[C@@H](Cc1cnc[nH]1)C(=O)N[C@@H](CC1CCCCC1)[C@@H](O)c1nccs1	340 nM
O=C(C[C@@H](Cc1cccc2ccccc12)C(=O)N[C@@H](Cc1cnc[nH]1)C(=O)N[C@@H](CC1CCCCC1)[C@@H](O)c1nccs1)NCCOc1ccccn1	580 nM
CC(C)C[C@H](NC(=O)[C@@H](CC(=O)NCCOc1ccccn1)Cc1cccc2ccccc12)C(=O)N[C@@H](CC1CCCCC1)[C@@H](O)c1ccccn1	170 nM
CC(C)C[C@H](NC(=O)[C@@H](CC(=O)N1CCN(C)CC1)Cc1cccc2ccccc12)C(=O)N[C@@H](CC(C)C)[C@@H](O)c1nccs1	440 nM
CC(C)C[C@H](NC(=O)[C@@H](CC(=O)OC(C)(C)C)Cc1ccccc1)C(=O)N[C@@H](CC1CCCCC1)[C@@H](O)c1nccs1	160 nM
CC(C)(C)OC(=O)C[C@@H](Cc1cccc2ccccc12)C(=O)N[C@@H](Cc1cnc[nH]1)C(=O)N[C@@H](CC1CCCCC1)[C@@H](O)c1nccs1	300 nM
CC(C)C[C@H](NC(=O)[C@@H](CC(=O)NCCc1cccn1C)Cc1cccc2ccccc12)C(=O)N[C@@H](CC(C)C)[C@@H](O)c1nccs1	33 nM
CC(C)C[C@H](NC(=O)[C@@H](CC(=O)NCCCN1CCCC1=O)Cc1cccc2ccccc12)C(=O)N[C@@H](CC(C)C)[C@@H](O)c1nccs1	74 nM
CC(C)C[C@H](NC(=O)[C@@H](CC(=O)O)Cc1cccc2ccccc12)C(=O)N[C@@H](CC(C)C)[C@@H](O)c1nccs1	550 nM
CC(C)C[C@H](NC(=O)[C@@H](CC(=O)NCCCn1ccnc1)Cc1cccc2ccccc12)C(=O)N[C@@H](CC(C)C)[C@@H](O)c1nccs1	210 nM
CC(C)C[C@H](NC(=O)[C@@H](CC(=O)NCCN1CCOCC1)Cc1cccc2ccccc12)C(=O)N[C@@H](CC(C)C)[C@@H](O)c1nccs1	400 nM
O=C(N[C@@H](Cc1c[nH]cn1)C(=O)N[C@@H](CC1CCCCC1)[C@@H](O)c1nccs1)[C@@H](CC(=O)N1CCOCC1)Cc1ccccc1	15000 nM
CC(C)C[C@H](NC(=O)[C@@H](CC(=O)NC(C)(C)C)Cc1ccccc1)C(=O)N[C@@H](CC(C)C)[C@@H](O)c1nccs1	67000 nM
CC(C)C[C@H](NC(=O)[C@@H](CC(=O)NCc1cccnc1)Cc1cccc2ccccc12)C(=O)N[C@@H](CC(C)C)[C@@H](O)c1nccs1	170 nM
CC(C)C[C@H](NC(=O)[C@H](Cc1ccccc1)OC(=O)N1CCC2(CC1)OCCO2)C(=O)N[C@@H](CC1CCCCC1)[C@@H](O)c1ccco1	210 nM
CC(C)C[C@H](NC(=O)[C@@H](CC(=O)OC(C)(C)C)Cc1cccs1)C(=O)N[C@@H](CC(C)C)[C@@H](O)c1nccs1	100000 nM
CC(C)C[C@H](NC(=O)[C@@H](CC(=O)OC(C)(C)C)Cc1cccc2ccccc12)C(=O)N[C@@H](CC1CCCCC1)[C@@H](O)c1ccccn1	160 nM
CC(C)C[C@H](NC(=O)[C@H](Cc1c[nH]cn1)NC(=O)[C@@H](CC(=O)NC(C)(C)C)Cc1ccccc1)[C@@H](O)c1nccs1	65000 nM
CC(C)C[C@H](NC(=O)[C@H](Cc1ccccc1)OC(=O)N1CCSCC1)C(=O)N[C@@H](CC1CCCCC1)[C@@H](O)c1ccco1	47 nM
O=C(N[C@@H](Cc1cnc[nH]1)C(=O)N[C@@H](CC1CCCCC1)[C@@H](O)c1cccs1)[C@@H](CC(=O)N1CCOCC1)Cc1cccc2ccccc12	270 nM
CC(C)C[C@H](NC(=O)[C@@H](CC(=O)N1CCOCC1)Cc1ccccc1)C(=O)N[C@@H](CC(C)C)[C@@H](O)c1nccs1	42000 nM
CC(C)C[C@H](NC(=O)[C@@H](CC(=O)NCCCN1CCOCC1)Cc1cccc2ccccc12)C(=O)N[C@@H](CC(C)C)[C@@H](O)c1nccs1	440 nM

Structure (SMILES)	IC50
CC(C)C[C@H](NC(=O)[C@H](Cc1ccccc1)OC(=O)N1CCOCC1)C(=O)N[C@@H](CC1CCCCC1)[C@@H](O)c1cccs1	270 nM
CC(C)C[C@H](NC(=O)[C@H](Cc1ccccc1)OC(=O)N1CCOCC1)C(=O)N[C@@H](CC1CCCCC1)[C@@H](O)c1ccco1	100 nM
CC(C)C[C@H](NC(=O)[C@H](Cc1ccccc1)OC(=O)N1CCSCC1)C(=O)N[C@@H](CC1CCCCC1)[C@@H](O)c1ccccn1	840 nM
CC(C)(C)OC(=O)C[C@@H](Cc1cccc2ccccc12)C(=O)N[C@@H](Cc1cnc[nH]1)C(=O)N[C@@H](CC1CCCCC1)[C@@H](O)c1ccccn1	4800 nM
CC(C)C[C@H](NC(=O)[C@@H](CC(=O)NCCc1ccccc1)Cc1cccc2ccccc12)C(=O)N[C@@H](CC(C)C)[C@@H](O)c1nccs1	730 nM
O=C(N[C@@H](Cc1cnc[nH]1)C(=O)N[C@@H](CC1CCCCC1)[C@@H](O)c1nccs1)[C@@H](CC(=O)N1CCOCC1)Cc1cccc2ccccc12	35 nM
CC(C)C[C@H](NC(=O)[C@@H](CC(=O)NCCCN1CCCC1=O)Cc1ccccc1)C(=O)N[C@@H](CC1CCCCC1)[C@@H](O)c1ccccn1	130 nM
COc1cc(C[C@H](CC(=O)O)C(=O)N[C@@H](CC(C)C)C(=O)N[C@@H](CC(C)C)[C@@H](O)c2nccs2)cc(OC)c1OC	6000 nM
CC(C)C[C@H](NC(=O)[C@@H](CC(=O)N1CCOCC1)Cc1cccc2ccccc12)C(=O)N[C@@H](CC1CCCCC1)[C@@H](O)c1ccccn1	77 nM
CC(C)C[C@H](NC(=O)[C@H](Cc1ccccc1)OC(=O)N1CCC(=O)CC1)C(=O)N[C@@H](CC1CCCCC1)[C@@H](O)c1ccco1	58 nM
CC(C)C[C@H](NC(=O)[C@@H](CC(=O)N1CCOCC1)Cc1cccc2ccccc12)C(=O)N[C@@H](CC(C)C)[C@@H](O)c1nccs1	250 nM
COCCNC(=O)O[C@@H](Cc1ccccc1)C(=O)N[C@@H](CC(C)C)C(=O)N[C@@H](CC1CCCCC1)[C@@H](O)c1ccco1	1700 nM
CC(C)C[C@H](NC(=O)[C@@H](CC(=O)NCCN1CCCC1)Cc1cccc2ccccc12)C(=O)N[C@@H](CC(C)C)[C@@H](O)c1nccs1	740 nM
CC(C)C[C@H](NC(=O)[C@H](Cc1ccccc1)OC(=O)N1CCOCC1)C(=O)N[C@@H](CC1CCCCC1)[C@@H](O)c1nccs1	11 nM
CC(C)C[C@H](NC(=O)[C@H](Cc1ccccc1)OC(=O)N1CCOCC1)C(=O)N[C@@H](CC1CCCCC1)[C@@H](O)c1ccccn1	770 nM
CC(C)C[C@H](NC(=O)[C@H](Cc1ccccc1)OC(=O)N1CCSCC1)C(=O)N[C@@H](CC1CCCCC1)[C@@H](O)c1cccs1	500 nM
CC(C)(C)NC(=O)C[C@@H](Cc1cccc2ccccc12)C(=O)N[C@@H](Cc1cnc[nH]1)C(=O)N[C@@H](CC1CCCCC1)[C@@H](O)c1nccs1	7100 nM
CC(C)C[C@H](NC(=O)[C@H](Cc1ccccc1)OC(=O)N1CCNC(=O)C1)C(=O)N[C@@H](CC1CCCCC1)[C@@H](O)c1ccco1	0.19 nM
CC(C)C[C@H](NC(=O)[C@@H](CC(=O)N1CCOCC1)Cc1ccccc1)C(=O)N[C@@H](CC1CCCCC1)[C@@H](O)c1nccs1	80000 nM
O=C(N[C@@H](Cc1cnc[nH]1)C(=O)N[C@@H](CC1CCCCC1)[C@@H](O)c1ccco1)[C@@H](CC(=O)N1CCOCC1)Cc1cccc2ccccc12	4.9 nM
CC(C)C[C@H](NC(=O)[C@@H](CC(=O)NCc1ccccn1)Cc1cccc2ccccc12)C(=O)N[C@@H](CC(C)C)[C@@H](O)c1nccs1	120 nM
CC(C)C[C@H](NC(=O)[C@@H](CC(=O)NCCOc1ccccn1)Cc1cccc2ccccc12)C(=O)N[C@@H](CC(C)C)[C@@H](O)c1nccs1	44 nM
CC(C)C[C@H](NC(=O)[C@H](CC1CCCCC1)OC(=O)N1CCOCC1)C(=O)N[C@@H](CC1CCCCC1)[C@@H](O)c1ccco1	180 nM
CC(C)C[C@H](NC(=O)[C@@H](CC(=O)O)Cc1cccc2ccccc12)C(=O)N[C@@H](CC1CCCCC1)[C@@H](O)c1ccccn1	3800 nM
CC(=O)N1CCN(C(=O)O[C@@H](Cc2ccccc2)C(=O)N[C@@H](CC(C)C)C(=O)N[C@@H](CC2CCCCC2)[C@@H](O)c2ccco2)CC1	42 nM
O=C(N[C@@H](Cc1cnc[nH]1)C(=O)N[C@@H](CC1CCCCC1)[C@@H](O)c1ccccn1)[C@@H](CC(=O)N1CCOCC1)Cc1cccc2ccccc12	260 nM
